Our source for the EC50 values is patent US8748415B2 (priority 2011, dated 2014).

This test relates to recombinant NL4-3 virus (Renilla luciferase in nef, Gag P373S). The test is described as follows: HIV cell culture assay (luciferase activity in MT-2 cells infected with NLRluc recombinant virus). The settings on record: NL43, MT-2 cells infected 4-5 days with NLRluc recombinant virus. Type of test: cell-based. The method, boiled down:
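Activity was read as luciferase output (Dual Luciferase reagents premixed with lysis solution) after 4–5 days of infection in serially diluted inhibitor. Host cells were MT-2 in 10% FBS RPMI. The reporter virus came from transfected 293T cells and was titered on MT-2.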

In the case of `C=C(C)[C@@H]1CC[C@]2(CNC(=O)CN(C)C)CC[C@]3(C)[C@H](CC[C@@H]4[C@@]5(C)CC=C(c6ccc(C(=O)O)cc6)C(C)(C)[C@@H]5CC[C@]43C)[C@@H]12` [Example 148, 4-((1R,3aS,5aR,5bR,7aR,11aS,11bR,13aR,13bR)-3a-((2-(dimethylamino)acetamido)methyl)-5a,5b,8,8,11a-pentamethyl-1-(prop-1-en-2-yl)-2,3,3a,4,5,5a,5b,6,7,7a,8,11,11a,11b,12,13,13a,13b-octadecahydro-1H-cyclopenta[a]chrysen-9-yl)benzoic acid], the 50% effective concentration (EC50) (class symbol) was less than 100 nM. Still for that read-out and setting: for `C=C(C)[C@@H]1CC[C@]2(CNC(=O)[C@@H]3CCCN3C)CC[C@]3(C)[C@H](CC[C@@H]4[C@@]5(C)CC=C(c6ccc(C(=O)O)cc6)C(C)(C)[C@@H]5CC[C@]43C)[C@@H]12` [Example 150, 4-((1R,3aS,5aR,5bR,7aR,11aS,11bR,13aR,13bR)-5a,5b,8,8,11a-pentamethyl-3a-(((S)-1-methylpyrrolidine-2-carboxamido)methyl)-1-(prop-1-en-2-yl)-2,3,3a,4,5,5a,5b,6,7,7a,8,11,11a,11b,12,13,13a,13b-octadecahydro-1H-cyclopenta[a]chrysen-9-yl)benzoic acid] the value was less than 100 nM; for `C=C(C)[C@@H]1CC[C@]2(CNC(=O)[C@H]3CCCN3C)CC[C@]3(C)[C@H](CC[C@@H]4[C@@]5(C)CC=C(c6ccc(C(=O)O)cc6)C(C)(C)[C@@H]5CC[C@]43C)[C@@H]12` [Example 151, 4-((1R,3aS,5aR,5bR,7aR,11aS,11bR,13aR,13bR)-5a,5b,8,8,11a-pentamethyl-3a-(((R)-1-methylpyrrolidine-2-carboxamido)methyl)-1-(prop-1-en-2-yl)-2,3,3a,4,5,5a,5b,6,7,7a,8,11,11a,11b,12,13,13a,13b-octadecahydro-1H-cyclopenta[a]chrysen-9-yl)benzoic acid], less than 100 nM. For the compound `C=C(C)[C@@H]1CC[C@]2(CNC(=O)C(F)(F)C(=O)NCCN(C)C)CC[C@]3(C)[C@H](CC[C@@H]4[C@@]5(C)CC=C(c6ccc(C(=O)O)cc6)C(C)(C)[C@@H]5CC[C@]43C)[C@@H]12` [Example 152, 4-((1R,3aS,5aR,5bR,7aR,11aS,11bR,13aR,13bR)-3a-((3-(2-(dimethylamino)ethylamino)-2,2-difluoro-3-oxopropanamido)methyl)-5a,5b,8,8,11a-pentamethyl-1-(prop-1-en-2-yl)-2,3,3a,4,5,5a,5b,6,7,7a,8,11,11a,11b,12,13,13a,13b-octadecahydro-1H-cyclopenta[a]chrysen-9-yl)benzoic acid], for the setting “class symbol”, the concentration for a half-maximal effect (EC50) is less than 100 nM.

As for `C=C(C)[C@@H]1CC[C@]2(CNC(=O)C(F)(F)C(=O)O)CC[C@]3(C)[C@H](CC[C@@H]4[C@@]5(C)CC=C(c6ccc(C(=O)O)cc6)C(C)(C)[C@@H]5CC[C@]43C)[C@@H]12` [Example 153, 4-((1R,3aS,5aR,5bR,7aR,11aS,11bR,13aR,13bR)-3a-((2-carboxy-2,2-difluoroacetamido)methyl)-5a,5b,8,8,11a-pentamethyl-1-(prop-1-en-2-yl)-2,3,3a,4,5,5a,5b,6,7,7a,8,11,11a,11b,12,13,13a,13b-octadecahydro-1H-cyclopenta[a]chrysen-9-yl)benzoic acid], the concentration for a half-maximal effect (EC50) (class symbol) was more than 100 nM. Consider `C=C(C)[C@@H]1CC[C@]2(CNC(=O)NCCN3CCCC3=O)CC[C@]3(C)[C@H](CC[C@@H]4[C@@]5(C)CC=C(c6ccc(C(=O)O)cc6)C(C)(C)[C@@H]5CC[C@]43C)[C@@H]12` [Example 154, 4-((1R,3aS,5aR,5bR,7aR,11aS,11bR,13aR,13bR)-5a,5b,8,8,11a-pentamethyl-3a-((3-(2-(2-oxopyrrolidin-1-yl)ethyl)ureido)methyl)-1-(prop-1-en-2-yl)-2,3,3a,4,5,5a,5b,6,7,7a,8,11,11a,11b,12,13,13a,13b-octadecahydro-1H-cyclopenta[a]chrysen-9-yl)benzoic acid], for which, for the setting “class symbol”, the EC50 is less than 100 nM.

`C=C(C)[C@@H]1CC[C@]2(CNC(=O)NCCCN3CCCC3=O)CC[C@]3(C)[C@H](CC[C@@H]4[C@@]5(C)CC=C(c6ccc(C(=O)O)cc6)C(C)(C)[C@@H]5CC[C@]43C)[C@@H]12` [Example 155, 4-((1R,3aS,5aR,5bR,7aR,11aS,11bR,13aR,13bR)-5a,5b,8,8,11a-pentamethyl-3a-((3-(3-(2-oxopyrrolidin-1-yl)propyl)ureido)methyl)-1-(prop-1-en-2-yl)-2,3,3a,4,5,5a,5b,6,7,7a,8,11,11a,11b,12,13,13a,13b-octadecahydro-1H-cyclopenta[a]chrysen-9-yl)benzoic acid]: under “class symbol”, the EC50 was less than 100 nM. In the case of `C=C(C)[C@@H]1CC[C@]2(CNC(=O)NCC(=O)OCC)CC[C@]3(C)[C@H](CC[C@@H]4[C@@]5(C)CC=C(c6ccc(C(=O)O)cc6)C(C)(C)[C@@H]5CC[C@]43C)[C@@H]12` [Example 156, 4-((1R,3aS,5aR,5bR,7aR,11aS,11bR,13aR,13bR)-3a-((3-(2-ethoxy-2-oxoethyl)ureido)methyl)-5a,5b,8,8,11a-pentamethyl-1-(prop-1-en-2-yl)-2,3,3a,4,5,5a,5b,6,7,7a,8,11,11a,11b,12,13,13a,13b-octadecahydro-1H-cyclopenta[a]chrysen-9-yl)benzoic acid], the EC50 (class symbol) is less than 100 nM. For the compound `C=C(C)[C@@H]1CC[C@]2(CNC(=O)NCC(=O)O)CC[C@]3(C)[C@H](CC[C@@H]4[C@@]5(C)CC=C(c6ccc(C(=O)O)cc6)C(C)(C)[C@@H]5CC[C@]43C)[C@@H]12` [Example 157, 4-((1R,3aS,5aR,5bR,7aR,11aS,11bR,13aR,13bR)-3a-((3-(carboxymethyl)ureido)methyl)-5a,5b,8,8,11a-pentamethyl-1-(prop-1-en-2-yl)-2,3,3a,4,5,5a,5b,6,7,7a,8,11,11a,11b,12,13,13a,13b-octadecahydro-1H-cyclopenta[a]chrysen-9-yl)benzoic acid], the EC50 (numeric value) worked out at 40 nM.

For `C=C(C)[C@@H]1CC[C@]2(CNC(=O)NCC(=O)OC)CC[C@]3(C)[C@H](CC[C@@H]4[C@@]5(C)CC=C(c6ccc(C(=O)O)cc6)C(C)(C)[C@@H]5CC[C@]43C)[C@@H]12` [Example 158, 4-((1R,3aS,5aR,5bR,7aR,11aS,11bR,13aR,13bR)-3a-((3-(2-methoxy-2-oxoethyl)ureido)methyl)-5a,5b,8,8,11a-pentamethyl-1-(prop-1-en-2-yl)-2,3,3a,4,5,5a,5b,6,7,7a,8,11,11a,11b,12,13,13a,13b-octadecahydro-1H-cyclopenta[a]chrysen-9-yl)benzoic acid], the concentration giving a half-maximal response (EC50) (class symbol) was less than 100 nM. In the case of `C=C(C)[C@@H]1CC[C@]2(CNC(=O)Nc3cccnc3)CC[C@]3(C)[C@H](CC[C@@H]4[C@@]5(C)CC=C(c6ccc(C(=O)O)cc6)C(C)(C)[C@@H]5CC[C@]43C)[C@@H]12` [Example 159, 4-((1R,3aS,5aR,5bR,7aR,11aS,11bR,13aR,13bR)-5a,5b,8,8,11a-pentamethyl-1-(prop-1-en-2-yl)-3a-((3-pyridin-3-ylureido)methyl)-2,3,3a,4,5,5a,5b,6,7,7a,8,11,11a,11b,12,13,13a,13b-octadecahydro-1H-cyclopenta[a]chrysen-9-yl)benzoic acid], the EC50 (numeric value) was found to be 10 nM. Consider `C=C(C)[C@@H]1CC[C@]2(CNC(=O)Nc3ccc(C(=O)OC)cc3)CC[C@]3(C)[C@H](CC[C@@H]4[C@@]5(C)CC=C(c6ccc(C(=O)O)cc6)C(C)(C)[C@@H]5CC[C@]43C)[C@@H]12` [Example 160, 4-((1R,3aS,5aR,5bR,7aR,11aS,11bR,13aR,13bR)-3a-((3-(4-(methoxycarbonyl)phenyl)ureido)methyl)-5a,5b,8,8,11a-pentamethyl-1-(prop-1-en-2-yl)-2,3,3a,4,5,5a,5b,6,7,7a,8,11,11a,11b,12,13,13a,13b-octadecahydro-1H-cyclopenta[a]chrysen-9-yl)benzoic acid], for which the EC50 (numeric value) came to 260 nM. As for `C=C(C)[C@@H]1CC[C@]2(CNC(=O)NCCN3CCS(=O)(=O)CC3)CC[C@]3(C)[C@H](CC[C@@H]4[C@@]5(C)CC=C(c6ccc(C(=O)O)cc6)C(C)(C)[C@@H]5CC[C@]43C)[C@@H]12` [Example 161, 4-((1R,3aS,5aR,5bR,7aR,11aS,11bR,13aR,13bR)-3a-((((2-(1,1-dioxido-4-thiomorpholinyl)ethyl)carbamoyl)amino)methyl)-1-isopropenyl-5a,5b,8,8,11a-pentamethyl-2,3,3a,4,5,5a,5b,6,7,7a,8,11,11a,11b,12,13,13a,13b-octadecahydro-1H-cyclopenta[a]chrysen-9-yl)benzoic acid], the EC50 (class symbol) was less than 100 nM. In the case of `C=C(C)[C@@H]1CC[C@]2(CNC(=O)OCCN3CCCC3=O)CC[C@]3(C)[C@H](CC[C@@H]4[C@@]5(C)CC=C(c6ccc(C(=O)O)cc6)C(C)(C)[C@@H]5CC[C@]43C)[C@@H]12` [Example 162, 4-((1R,3aS,5aR,5bR,7aR,11aS,11bR,13aR,13bR)-5a,5b,8,8,11a-pentamethyl-3a-(((2-(2-oxopyrrolidin-1-yl)ethoxy)carbonylamino)methyl)-1-(prop-1-en-2-yl)-2,3,3a,4,5,5a,5b,6,7,7a,8,11,11a,11b,12,13,13a,13b-octadecahydro-1H-cyclopenta[a]chrysen-9-yl)benzoic acid], the concentration giving a half-maximal response (EC50) (class symbol) was less than 100 nM.

Consider `C=C(C)[C@@H]1CC[C@]2(CNC(=O)OCCN3CCNCC3)CC[C@]3(C)[C@H](CC[C@@H]4[C@@]5(C)CC=C(c6ccc(C(=O)O)cc6)C(C)(C)[C@@H]5CC[C@]43C)[C@@H]12` [Example 163, 4-((1R,3aS,5aR,5bR,7aR,11aS,11bR,13aR,13bR)-5a,5b,8,8,11a-pentamethyl-3a-(((2-(piperazin-1-yl)ethoxy)carbonylamino)methyl)-1-(prop-1-en-2-yl)-2,3,3a,4,5,5a,5b,6,7,7a,8,11,11a,11b,12,13,13a,13b-octadecahydro-1H-cyclopenta[a]chrysen-9-yl)benzoic acid], for which the EC50 (class symbol) was less than 100 nM.

As a reminder, the EC50 is the concentration that produces a half-maximal response.
